Measurements as given in patent US6492137B1, “Response element compositions and assays employing same” (The Salk Institute for Biological Studies, priority 1989, dated 2002).

Biological target: T1, RARα (Homo sapiens, UniProt P10276)
T1 sequence (P10276 1-462): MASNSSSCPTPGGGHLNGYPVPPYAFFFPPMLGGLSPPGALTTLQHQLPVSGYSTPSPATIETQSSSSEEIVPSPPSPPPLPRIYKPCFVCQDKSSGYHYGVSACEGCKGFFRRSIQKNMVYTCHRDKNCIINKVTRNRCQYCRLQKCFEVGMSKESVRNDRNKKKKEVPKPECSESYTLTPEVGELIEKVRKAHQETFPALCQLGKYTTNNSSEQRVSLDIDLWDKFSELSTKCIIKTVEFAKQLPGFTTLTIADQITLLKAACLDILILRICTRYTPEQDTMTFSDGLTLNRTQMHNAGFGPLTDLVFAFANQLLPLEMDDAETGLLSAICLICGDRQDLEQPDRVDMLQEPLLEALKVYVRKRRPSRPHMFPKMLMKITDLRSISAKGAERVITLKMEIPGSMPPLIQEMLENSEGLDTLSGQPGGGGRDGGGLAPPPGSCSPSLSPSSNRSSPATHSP
Experiment: Gel retardation DNA-binding assay with RARα-expressing COS cell extracts
Set-up: expressed in transfected cells; host or cells: COS cells (whole-cell extract)
Details: unlabeled competitor oligonucleotide; COS cell extracts
Description: For DNA binding assays, COS cells were cultured in DMEM with 10% calf bovine serum and transfected by the calcium phosphate method with 20 μg of the pCMX receptor expression plasmid for 6 hours followed by a glycerol shock. After incubating the transfected COS cells for another 48 hours, the cells were harvested to prepare extracts for the DNA binding assay, carried out as described by Damm et al., Nature 339: 593-597 (1989). The extracts were made in 20 mM HEPES (pH 7.4), 0.4 M KCl, 2 mM DTT and 20% glycerol. A similar method was employed to prepare a whole cell extract from F9 stem cells. For the binding, 5 μg (COS) or 10 μg (F9) of proteins was incubated on ice for 20 minutes, first in 20 mM HEPES, 80 mM KCl, 1 mM DTT, 0.1% NP40, 2.5 μg of poly dI/dC, and 10% glycerol (cold competitor oligonucleotides, when included, were added during this pre-incubation period). Then 40 fmole of ^32P-labeled oligonucleotide probe (1-2×10^5 cpm, prepared by filling-in reaction using Klenow polymerase in the presence of α-^32P-dCTP) was added to the reaction mixture, followed by incubation at room temperature for 30 minutes. The receptor-DNA complexes were resolved by electrophoresis through 5% polyacrylamide gel containing 5% glycerol at 6 V/cm at room temperature.
Oligonucleotides listed in FIG. 3 were used as a probe to test specific DNA-binding of the RARα and TRβ in a gel retardation assay. On the βRARE, a faint background binding activity was detected in the mock transfected COS cell extract. […] In each case the result obtained from in vivo transactivation and in vitro DNA binding are consistent.
Using the mobility shift assay, the DNA-binding capacity of extracts from COS cells expressing TRβ and RARα to these sequences was also tested. […] This pattern is consistent with that of the in vivo activation (FIG. 4). A reciprocal pattern was obtained when the same oligonucleotides were used to compete RARα binding to the ^32P-labeled βRARE. […] This provides a striking example of the role of half-site spacing in generating a functional response element.

| Substance | competition for RARα binding to 32P-labeled βRARE |
| --- | --- |
| MHC-N: 23-nucleotide core of the wild-type sequence (MHC-TRE) (SEQ ID NO:14) (AGCTGGAGGTGACAGGAGGACAGCAAGCT; DNA, backbone not given here; further chemistry not fully specified) | fails to compete at all |
| TREp: optimized palindromic rat growth hormone TRE (SEQ ID NO:10) (AGCTTCAGGTCATGACCTGAGAGCT; DNA, backbone not given here; double-stranded response element with agct overhangs, cloned into reporter plasmid) [reference compound] | effective competitors |
